Results taken from ChEMBL document CHEMBL4483862, “Open-source discovery of chemical leads for next-generation chemoprotective antimalarials” (2018).

System: Plasmodium berghei
Experiment: Luciferase/luciferin-expressing antifolate-resistant parasites were used to infect a culture of HepG2 cells that were pre-incubated with compounds. Infected hepatocytes emit light due to the luciferase reaction. Assay results are presented as the percent inhibition of light emission compared to control. […]
Assay type: functional
Settings: sporozoite; for IC90: read-out: LUCIFERASE INFECTION ASSAY - IC90

SMILES	IC90 [µM]	further results
COc1nc(-c2ccccc2)cc(-c2ccc3c(c2)OCO3)c1C#N	5.77	IC50 (HEPG2TOX_HILL_SLOPE 1.05, HEPG2TOX_R_SQUARED 0.733, PBLUC_HILL_SLOPE 1.42, PBLUC_R_SQUARED 0.508, read-out: LUCIFERASE INFECTION ASSAY - IC50): 1.23 µM
CC(C)(C)c1ccc(C(=O)Nc2ccc(Oc3cccnc3)nc2)cc1	> 9.5	IC50 (HEPG2TOX_HILL_SLOPE 1.03, HEPG2TOX_R_SQUARED 0.91, PBLUC_HILL_SLOPE 1.13, PBLUC_R_SQUARED 0.427, read-out: LUCIFERASE INFECTION ASSAY - IC50): 3.06 µM
Oc1cc(C(F)(F)F)nc(-c2ccccn2)n1	5.54	IC50 (HEPG2TOX_HILL_SLOPE 1.09, HEPG2TOX_R_SQUARED 0.904, PBLUC_HILL_SLOPE 3.05, PBLUC_R_SQUARED 0.293, read-out: LUCIFERASE INFECTION ASSAY - IC50): 8.2 µM
CCc1nnc(S)n1/N=C/c1c(C)nn(-c2ccccc2)c1Cl	0.704	IC50 (HEPG2TOX_HILL_SLOPE 1.03, HEPG2TOX_R_SQUARED 0.933, PBLUC_HILL_SLOPE 1.45, PBLUC_R_SQUARED 0.745, read-out: LUCIFERASE INFECTION ASSAY - IC50): 0.155 µM
Oc1c(Cl)cc(Cl)cc1C1Nc2cc(Cl)c(C(F)(F)F)cc2N1 (configuration not stated)	0.127	IC50 (HEPG2TOX_HILL_SLOPE 1.05, HEPG2TOX_R_SQUARED 0.96, PBLUC_HILL_SLOPE 13.2, PBLUC_R_SQUARED 0.588, read-out: LUCIFERASE INFECTION ASSAY - IC50): 0.108 µM
O=C(CN1CCC(Nc2ncnc3cc(Cl)ccc23)CC1)Nc1ccccc1	5.83	IC50 (HEPG2TOX_HILL_SLOPE 1.03, HEPG2TOX_R_SQUARED 0.872, PBLUC_HILL_SLOPE 1.97, PBLUC_R_SQUARED 0.801, read-out: LUCIFERASE INFECTION ASSAY - IC50): 1.91 µM
COc1ccc2cc(CNc3ncnc4n[nH]cc34)ccc2c1	4.29	IC50 (HEPG2TOX_HILL_SLOPE 1.04, HEPG2TOX_R_SQUARED 0.97, PBLUC_HILL_SLOPE 1.64, PBLUC_R_SQUARED 0.72, read-out: LUCIFERASE INFECTION ASSAY - IC50): 1.13 µM
COc1ccc(CO/N=C/NC(=O)C(c2ccc(Cl)cc2)c2nc3ccccc3nc2C(F)(F)F)cc1 (configuration not stated)	> 6.24	IC50 (HEPG2TOX_HILL_SLOPE 1.06, HEPG2TOX_R_SQUARED 0.661, read-out: LUCIFERASE INFECTION ASSAY - IC50): > 6.24 µM
CCCn1nc(C(=O)NCC(c2ccc(OC)cc2)N2CCOCC2)c2ccccc2c1=O (configuration not stated)	> 10	IC50 (HEPG2TOX_HILL_SLOPE 1.06, HEPG2TOX_R_SQUARED 0.0699, read-out: LUCIFERASE INFECTION ASSAY - IC50): > 10 µM
O=C1NC2(CCOc3ccccc32)C(=O)N1Cc1cc2ccccc2nc1Cl (configuration not stated)	1.37	IC50 (HEPG2TOX_HILL_SLOPE 1.06, HEPG2TOX_R_SQUARED 0.922, PBLUC_HILL_SLOPE 24.2, PBLUC_R_SQUARED 0.349, read-out: LUCIFERASE INFECTION ASSAY - IC50): 1.25 µM
Cc1ccc2c(Cl)cc(Cl)c(OC(=O)C3CC3)c2n1	6.06	IC50 (HEPG2TOX_HILL_SLOPE 1.04, HEPG2TOX_R_SQUARED 0.959, PBLUC_HILL_SLOPE 1.84, PBLUC_R_SQUARED 0.861, read-out: LUCIFERASE INFECTION ASSAY - IC50): 1.84 µM
CN(Cc1cnn(Cc2ccccc2)c1)C(=O)c1cccc(S(=O)(=O)N2CCc3ccccc32)c1	9.38	IC50 (HEPG2TOX_HILL_SLOPE 1.04, HEPG2TOX_R_SQUARED 0.954, PBLUC_HILL_SLOPE 3.29, PBLUC_R_SQUARED 0.175, read-out: LUCIFERASE INFECTION ASSAY - IC50): 4.81 µM
Clc1ccc(-c2csc3ncnc(NCc4ccc(N5CCOCC5)nc4)c23)cc1	> 10	IC50 (HEPG2TOX_HILL_SLOPE 1.06, HEPG2TOX_R_SQUARED 0.974, PBLUC_HILL_SLOPE 2.24, PBLUC_R_SQUARED 0.328, read-out: LUCIFERASE INFECTION ASSAY - IC50): 5.51 µM
CN(CC(=O)Nc1ccc(-c2nc3ccccc3[nH]2)cc1)S(=O)(=O)c1ccc(Cl)s1	> 10	IC50 (HEPG2TOX_HILL_SLOPE 1.06, HEPG2TOX_R_SQUARED 0.764, PBLUC_HILL_SLOPE 1.55, PBLUC_R_SQUARED 0.165, read-out: LUCIFERASE INFECTION ASSAY - IC50): > 10 µM
CCc1cc(-c2n[nH]cc2-c2ccc3c(c2)OCCO3)c(O)cc1OC	1.59	IC50 (HEPG2TOX_HILL_SLOPE 1.05, HEPG2TOX_R_SQUARED 0.928, PBLUC_HILL_SLOPE 1.82, PBLUC_R_SQUARED 0.694, read-out: LUCIFERASE INFECTION ASSAY - IC50): 0.474 µM
Nn1c(SCC(=O)c2c[nH]c3ccccc23)nnc1C(F)(F)F	8.78	IC50 (HEPG2TOX_HILL_SLOPE 1.03, HEPG2TOX_R_SQUARED 0.976, PBLUC_HILL_SLOPE 0.599, PBLUC_R_SQUARED 0.712, read-out: LUCIFERASE INFECTION ASSAY - IC50): 0.224 µM

SMILES	IC90 [µM]	further results
O=C1NC2(CCc3ccccc32)C(=O)N1Cc1cc2ccccc2nc1Cl (configuration not stated)	> 10	IC50 (HEPG2TOX_HILL_SLOPE 1.06, HEPG2TOX_R_SQUARED 0.864, read-out: LUCIFERASE INFECTION ASSAY - IC50): > 10 µM
OCc1cccc(-c2ccc3ncc(-c4cccs4)n3n2)c1	4.05	IC50 (HEPG2TOX_HILL_SLOPE 1.03, HEPG2TOX_R_SQUARED 0.934, PBLUC_HILL_SLOPE 12.1, PBLUC_R_SQUARED 0.638, read-out: LUCIFERASE INFECTION ASSAY - IC50): 3.38 µM
COc1ccc(-c2cnc3ccc(Cc4ccccc4)nn23)cc1OC	3.83	IC50 (HEPG2TOX_HILL_SLOPE 1.09, HEPG2TOX_R_SQUARED 0.956, PBLUC_HILL_SLOPE 11.4, PBLUC_R_SQUARED 0.574, read-out: LUCIFERASE INFECTION ASSAY - IC50): 3.16 µM
CNC(=O)c1ccc(CN(C2CC2)S(=O)(=O)c2cc(C)ccc2C)cc1	5.44	IC50 (HEPG2TOX_HILL_SLOPE 1.06, HEPG2TOX_R_SQUARED 0.677, PBLUC_HILL_SLOPE 1.71, PBLUC_R_SQUARED 0.782, read-out: LUCIFERASE INFECTION ASSAY - IC50): 1.51 µM
N#C/C(=N\Nc1ccc(Cl)cc1)S(=O)(=O)c1ccc(Cl)cc1	3.93	IC50 (HEPG2TOX_HILL_SLOPE 1.06, HEPG2TOX_R_SQUARED 0.975, PBLUC_HILL_SLOPE 5.18, PBLUC_R_SQUARED 0.893, read-out: LUCIFERASE INFECTION ASSAY - IC50): 2.57 µM
CC(C)(C)c1ccc(C(O)c2nc(C(=O)NC3CC3)cs2)cc1 (configuration not stated)	1.29	IC50 (HEPG2TOX_HILL_SLOPE 1.09, HEPG2TOX_R_SQUARED 0.894, PBLUC_HILL_SLOPE 10.5, PBLUC_R_SQUARED 0.569, read-out: LUCIFERASE INFECTION ASSAY - IC50): 1.05 µM
Cn1ccc2cc(-c3cn4c(-c5cccc(Cl)c5)cnc4cn3)ccc21	2.86	IC50 (HEPG2TOX_HILL_SLOPE 1.09, HEPG2TOX_R_SQUARED 0.945, PBLUC_HILL_SLOPE 1.73, PBLUC_R_SQUARED 0.845, read-out: LUCIFERASE INFECTION ASSAY - IC50): 0.804 µM
Cc1cc(NNC(=O)Nc2ccc(Cl)cc2)nc2c1c(C)nn2C	> 9.57	IC50 (HEPG2TOX_HILL_SLOPE 1.06, HEPG2TOX_R_SQUARED 0.939, PBLUC_HILL_SLOPE 2, PBLUC_R_SQUARED 0.223, read-out: LUCIFERASE INFECTION ASSAY - IC50): 4.05 µM
CC(C)CCN1C(=O)N(C(C)C)C(=O)C12CCN(Cc1c[nH]c3ccccc13)CC2	> 8.04	IC50 (HEPG2TOX_HILL_SLOPE 1.06, HEPG2TOX_R_SQUARED 0.491, PBLUC_HILL_SLOPE 3.87, PBLUC_R_SQUARED 0.243, read-out: LUCIFERASE INFECTION ASSAY - IC50): > 8.04 µM
COc1ccc(C(=O)/C(C#N)=N/Nc2cccc(Cl)c2Cl)cc1	9.32	IC50 (HEPG2TOX_HILL_SLOPE 1.05, HEPG2TOX_R_SQUARED 0.901, PBLUC_HILL_SLOPE 1.18, PBLUC_R_SQUARED 0.493, read-out: LUCIFERASE INFECTION ASSAY - IC50): 1.44 µM
Nc1nccnc1C(=O)Nc1nc2cc3c(cc2s1)OCCO3	0.434	IC50 (HEPG2TOX_HILL_SLOPE 1.04, HEPG2TOX_R_SQUARED 0.527, PBLUC_HILL_SLOPE 12.4, 0.362, PBLUC_R_SQUARED 0.835, 0.759, read-out: LUCIFERASE INFECTION ASSAY - IC50): 0.197 µM
Clc1ccc2nc(-c3cnn(-c4ccccc4)c3)[nH]c2c1	7.38	IC50 (HEPG2TOX_HILL_SLOPE 1.09, HEPG2TOX_R_SQUARED 0.847, PBLUC_HILL_SLOPE 23.0, 2.49, PBLUC_R_SQUARED 0.431, 0.566, read-out: LUCIFERASE INFECTION ASSAY - IC50): 5.39 µM
COc1ccc(C(=O)Nc2cccc(/C=C3\S/C(=N\C4CCCC4)NC3=O)c2)cc1	> 10	IC50 (HEPG2TOX_HILL_SLOPE 1.03, HEPG2TOX_R_SQUARED 0.894, PBLUC_HILL_SLOPE 3.32, PBLUC_R_SQUARED 0.257, read-out: LUCIFERASE INFECTION ASSAY - IC50): 5.96 µM
COc1ccc2c(c1)[nH]c1c(N(C)CCc3ccc(OC)c(OC)c3)ncnc12	> 8.41	IC50 (HEPG2TOX_HILL_SLOPE 1.05, HEPG2TOX_R_SQUARED 0.856, PBLUC_HILL_SLOPE 1.55, PBLUC_R_SQUARED 0.53, read-out: LUCIFERASE INFECTION ASSAY - IC50): 4.47 µM
Cc1cccc(-[n+]2c(C)cc(C=C3Sc4ccc5ccccc5c4N3C)cc2C)c1	0.685	IC50 (HEPG2TOX_HILL_SLOPE 1.04, HEPG2TOX_R_SQUARED 0.832, PBLUC_HILL_SLOPE 4.15, PBLUC_R_SQUARED 0.768, read-out: LUCIFERASE INFECTION ASSAY - IC50): 0.403 µM
